According to US12590096B2, “Imidazo[2,1-f][1,2,4]triazin-4-amine as TLR8 agonists” (BeOne Medicines | GmbH, priority 2019, dated 2026):
Like-named read-outs stand apart in the source and are kept apart here.

Key:
[1] = biological target: T1, human TLR 8 protein in HEK-blue hTLR 8 tool cell line (Homo sapiens, UniProt Q9NR97); test: TLR8 stimulation determined by HEK-Blue Detection (NF-κB/SEAP reporter); format: cell-based; details: HEK-Blue hTLR8 cells, 16 h incubation, relative to maximum activation by Resiquimod or motolimod; read-out: EC50 (nmol)
T1 construct: expressed in transfected cells; host or cells: HEK293 (HEK-Blue hTLR8)
T1 sequence (Q9NR97 27-1041): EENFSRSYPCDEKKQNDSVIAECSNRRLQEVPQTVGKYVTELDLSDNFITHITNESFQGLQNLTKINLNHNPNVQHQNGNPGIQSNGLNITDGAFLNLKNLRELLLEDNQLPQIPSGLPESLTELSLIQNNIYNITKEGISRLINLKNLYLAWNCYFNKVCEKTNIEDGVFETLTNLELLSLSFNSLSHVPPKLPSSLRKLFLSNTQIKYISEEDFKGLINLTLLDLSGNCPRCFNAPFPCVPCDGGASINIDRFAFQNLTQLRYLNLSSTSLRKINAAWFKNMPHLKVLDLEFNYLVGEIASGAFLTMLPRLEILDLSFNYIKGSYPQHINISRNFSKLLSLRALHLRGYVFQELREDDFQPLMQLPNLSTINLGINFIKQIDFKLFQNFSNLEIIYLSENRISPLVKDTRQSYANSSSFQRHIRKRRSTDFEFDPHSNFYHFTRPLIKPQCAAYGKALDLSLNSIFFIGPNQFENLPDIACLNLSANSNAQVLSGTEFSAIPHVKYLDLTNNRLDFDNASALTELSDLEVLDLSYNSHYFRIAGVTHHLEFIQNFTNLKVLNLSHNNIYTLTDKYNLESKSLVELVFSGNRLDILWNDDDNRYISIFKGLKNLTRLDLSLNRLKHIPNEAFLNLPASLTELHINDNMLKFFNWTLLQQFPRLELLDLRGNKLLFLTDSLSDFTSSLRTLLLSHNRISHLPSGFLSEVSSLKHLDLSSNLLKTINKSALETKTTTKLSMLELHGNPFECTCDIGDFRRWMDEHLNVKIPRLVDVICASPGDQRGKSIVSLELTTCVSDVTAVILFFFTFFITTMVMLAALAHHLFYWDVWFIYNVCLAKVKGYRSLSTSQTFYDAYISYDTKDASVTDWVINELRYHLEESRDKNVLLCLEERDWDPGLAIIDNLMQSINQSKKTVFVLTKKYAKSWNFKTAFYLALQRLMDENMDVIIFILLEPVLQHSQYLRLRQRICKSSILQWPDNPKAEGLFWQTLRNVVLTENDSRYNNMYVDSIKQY
Description: TLR8 Stimulation Determined by HEK-Blue Detection
This assay was designed to study the stimulation of human TLR 8 protein in HEK-blue hTLR 8 tool cell line by monitoring the activation of NF-κB. HEK-blue hTLR8 cells were obtained by co-transfection of hTLR8 gene and optimized secretory embryonic alkaline phosphatase (SEAP) reporter gene into HEK293 cells. SEAP reporter gene was put under the control of […] minimal promoter fused with five NF-κB and AP-1-binding sites. NF-κB and AP-1 were activated by stimulation with TLR 8 ligand, thus inducing the expression of SEAP. The level of SEAP can be easily determined by HEK-Blue Detection (a cell culture medium that allows real-time detection of SEAP). HEK-Blue Detection comprises all nutrients needed for cell growth and specific SEAP color substrates. The hydrolysis of substrate by SEAP produces purple/blue color which can be measured by spectrophotometer.
When growing to 50-80% confluence, HEK-Blue hTLR7/8 cells were plated into 96-well plates (costar 3599) at a density of 40,000 cells/well. Then, the compound serially diluted at 10 points with a final concentration ranging from 1 nM to 10 μm in 0.1% DMSO/HEK-Blue Detection was added. The plates were then incubated in 5% CO2 at 37° C. for 16 h. Optical density at 620-655 nm was read on BMG PHERAstar FSX instrument. The EC50 of each compound was determined by calculating the maximum activation percentage identified using Resiquimod or motolimod.
The EC50 of the tested compound of the present invention is as follows.

[2] = system: PBMC (peripheral blood monocyte); test: PBMC determination: cytokines in culture supernatant measured by HTRF; format: cell-based; details: human PBMC, 24 h
Method: Determination of PBMC (Peripheral Blood Monocyte) Cell Preparation, Separation and Culture
Human whole blood was collected from healthy volunteers using BD Vacutainer® Lithium Heparin Tubes. PBMCs were prepared using Ficoll separation medium (GE Healthcare) by SopMate™ (STEMCELL). The cell survival rate was over 85% as monitored by Countstar. PBMCs were cultured in RPMI 1640 (Gibco) 10% (v/v) FBS (Gibco), 1×MEM NEAA (Gibco), 1× GlutaMAX (Gibco), 1 mM sodium pyruvate (Gibco), 50 uM 2-mercaptoethanol (sigma), and 100 U/ml penicillin-streptomycin (Thermo fisher Scientific).
PBMCs were plated into 96-well plates (costar 3894) with a density of 2×10^5 cells/well. Then, TLR7/8 compound was added, and serial dilution was carried out at ten points. The final concentration in 0.1% DMSO/RPMI 1640 ranged from 1 nM to 10 μM. Then, the plates were incubated in 5% CO2 at 37° C. for 24 h.
HTRF (Homogeneous Time-Resolved Fluorescence)
After the specified time point, according to the manufacturers recommendations, the cytokines in the cell culture supernatant were measured by Human IL6 kit (cisbio) and Human TNF alpha kit (cisbio). The EC50 of each compound was determined by calculating the maximum activation percentage identified using Resiquimod or Motolimod.

[3] = Human IL6 kit (HTRF), read-out: IL6 (EC50)
[4] = Human TNF alpha kit (HTRF), read-out: TNF-alpha (EC50)

Row | SMILES | EC50 [1] | EC50 [2, 3] | EC50 [2, 4]
1 | CCC[C@H](C)Oc1nc(N)c2ncc(CC3CCCNCC3)n2n1 (stereo partly drawn) [Compound B25, 7-(azepan-4-ylmethyl)-2-(((S)-pent-2-yl)oxy)imidazo[2,1-f][1,2,4]triazin-4-amine] | 63 nM | 236 nM | 456 nM
2 | CCC[C@H](C)Oc1nc(N)c2ncc(CC3CCNC(C)C3)n2n1 (stereo partly drawn) [Compound B27, 7-((2-methylpiperidin-4-yl)methyl)-2-(((S)-pent-2-yl)oxy)imidazo[2,1-f][1,2,4]triazin-4-amine] | 20 nM | 228 nM | 326 nM
3 | CCC[C@H](C)Oc1nc(N)c2ncc(C[C@H]3C[C@@H](N)C3)n2n1 [Compound B30, 7-(((1s,3S)-3-aminocyclobutyl)methyl)-2-(((S)-pent-2-yl)oxy)imidazo[2,1-f][1,2,4]triazin-4-amine] | 26 nM | 85 nM | 153 nM
4 | CCC[C@H](C)Oc1nc(N)c2ncc(CC3CCN(CCN)CC3)n2n1 [Compound B38, (S)-7-((1-(2-aminomethyl)piperidin-4-yl)methyl)-2-(pent-2-yloxy)imidazo[2,1-f][1,2,4]triazin-4-amine] | 47 nM | 28 nM | 39 nM
